This passage reports Conductivity and pH results from US9693563B2, “Boron-silane polyether complex” (3M INNOVATIVE PROPERTIES COMPANY, priority 2013, dated 2017).

Molecules are shown by their SMILES.

The nature of this data set: Electrical conductivity of borax, silane polyether and borax-SPE complex solutions. The conditions noted are these: for Conductivity: 25° C., 20 ml solution. Format: physicochemical. On the procedure: Electrical conductivity is an effective quantitative tool to study complex formation in water for the system of a weak acid and a weak base. In the current study, the silane polyether acts as the weak acid (pH around 6) and borax acts as the weak base (pH around 9). The following analyses were carried out at 25° C. using a 20 ml solution of borax or SPE-1. Conductivity was measure at 45 minutes (immediately after complexation). The results are reported in Table 4a in units of microSiemens per centimeter (μS/cm).
The electrical conductivity of 0.025 M solutions of borax-SPE complex were prepared at various molar ratios of borax to silane polyether (B:S). The following analyses were carried out at 25° C. using a 20 ml solution. Conductivity was measure at 45 minutes and again after 24 hours to assess the stability of the complex.

With `O=BOB(O)OB(O)OB=O` [Borax, borax (Na2B4O7.10H2O)], the Conductivity was 133 μS/cm (0.0005M); 260 μS/cm (0.001M); 853 μS/cm (0.005M); 1225 μS/cm (0.01M); 4530 μS/cm (0.05M); 9000 μS/cm (0.1M). Moreover, the pH entry (weak acid / weak base in water) is listed as “around 9”.
